Measurements as given in article PMC9743598, “OR2AT4 and OR1A2 counterregulate molecular pathophysiological processes of steroid-resistant inflammatory lung diseases in human alveolar macrophages” (Molecular Medicine, 2022).

Target: T1, OR2AT4 (Homo sapiens, UniProt A6NND4)
T1 construct: endogenous full-length receptor in primary human alveolar macrophages from bronchoalveolar lavage; estimated 34 kDa, blot signal about 40 kDa
T1 sequence (A6NND4 1-320): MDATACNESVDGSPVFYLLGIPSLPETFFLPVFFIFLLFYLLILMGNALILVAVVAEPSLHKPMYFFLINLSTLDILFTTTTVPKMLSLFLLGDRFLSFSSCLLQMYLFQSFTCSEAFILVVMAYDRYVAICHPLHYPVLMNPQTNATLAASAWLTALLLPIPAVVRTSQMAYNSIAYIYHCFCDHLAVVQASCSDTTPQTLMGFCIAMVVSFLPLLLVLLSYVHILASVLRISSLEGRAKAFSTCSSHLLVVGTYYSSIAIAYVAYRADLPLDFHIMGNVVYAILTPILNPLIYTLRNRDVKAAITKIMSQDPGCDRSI
Experiment: Fura-2 single-cell calcium imaging, primary human alveolar macrophages
Format: cell-based
Details: agonist; endogenous receptor in native cells; Ringer solution

EC50: 190 µM
SMILES: CC1=CCC(CCC(C)C(C)O)C1(C)C (stereo not shown) [Sandalore]
